Data from patent US20070269512A1, “GASTRORETENTIVE SUSTAINED RELEASE FORMULATIONS” (priority 2006, published 2007).

Assay: Pharmacokinetic study, plasma concentrations by LC-MS/MS
Parameters: species or system beagle dogs
Conditions: dog, in vivo
Description: Each overnight-fasted dog in group 1 received an intravenous bolus dose administration (1 mg/kg) of the compound of Formula (I). Following i.v. dose administration, blood samples (˜3 mL) were collected via jugular venipuncture, or other suitable site, into EDTA tubes and placed on wet ice, at predose (0.0), 0.25, 0.5, 1, 2, 4, 8, and 24 hours post dose. Each overnight-fasted dog in groups 2-5 received a single oral dose (200 mg) of compound of Formula (I). Following oral dose administration, blood samples (˜3 mL) were collected via jugular venipuncture, or other suitable site, into EDTA tubes and placed on wet ice, at predose (0.0), 0.25, 0.5, 1, 2, 4, 8, 24, 36, and 48 hours post dose. Plasma was harvested by centrifugation, each plasma sample are split into approximately equal parts before being frozen at −70° C. Food was returned after the 4 hour blood sample is collected. All samples were processed within two hours of collection. All samples are labeled with the study number, test article, dose, time interval, species, and animal identification number.
One set of plasma samples were analyzed for unchanged compound of Formula (I) concentrations using a liquid chromatographic-triple quadrupole mass spectrometric (LC-MS/MS) assay procedure. Any remaining plasma was retained for possible metabolite profiling. […]

Cc1cnc(NCC(F)(F)c2ccccc2)c(=O)n1CC(=O)NCCONC(=N)N [Compound X]
colonic absorption: very poor colonic absorption
